Measurements taken from ChEMBL document CHEMBL1133739, “Fenchylamine sulfonamide inhibitors of amyloid beta peptide production by the gamma-secretase proteolytic pathway: potential small-molecule therapeutic agents for the treatment of Alzheimer's disease” (J Med Chem, 2000).

Key:
[1] = molecular target: Amyloid-beta precursor protein (Homo sapiens) (UniProt P05067); test: Observed stimulation of the production of soluble beta-amyloid precursor protein; type: functional
[2] = molecular target: Amyloid-beta precursor protein (Homo sapiens) (UniProt P05067); test: Inhibition of A-beta-42 production by inhibiting Gamma-secretase proteolytic pathway in HEK293 cell stably transfected with a double mutant form of human APP(K595N/M596L), at 2.5 uM concentration; type: cell-based

Sequence of Amyloid-beta precursor protein (Homo sapiens) (P05067 whole entry): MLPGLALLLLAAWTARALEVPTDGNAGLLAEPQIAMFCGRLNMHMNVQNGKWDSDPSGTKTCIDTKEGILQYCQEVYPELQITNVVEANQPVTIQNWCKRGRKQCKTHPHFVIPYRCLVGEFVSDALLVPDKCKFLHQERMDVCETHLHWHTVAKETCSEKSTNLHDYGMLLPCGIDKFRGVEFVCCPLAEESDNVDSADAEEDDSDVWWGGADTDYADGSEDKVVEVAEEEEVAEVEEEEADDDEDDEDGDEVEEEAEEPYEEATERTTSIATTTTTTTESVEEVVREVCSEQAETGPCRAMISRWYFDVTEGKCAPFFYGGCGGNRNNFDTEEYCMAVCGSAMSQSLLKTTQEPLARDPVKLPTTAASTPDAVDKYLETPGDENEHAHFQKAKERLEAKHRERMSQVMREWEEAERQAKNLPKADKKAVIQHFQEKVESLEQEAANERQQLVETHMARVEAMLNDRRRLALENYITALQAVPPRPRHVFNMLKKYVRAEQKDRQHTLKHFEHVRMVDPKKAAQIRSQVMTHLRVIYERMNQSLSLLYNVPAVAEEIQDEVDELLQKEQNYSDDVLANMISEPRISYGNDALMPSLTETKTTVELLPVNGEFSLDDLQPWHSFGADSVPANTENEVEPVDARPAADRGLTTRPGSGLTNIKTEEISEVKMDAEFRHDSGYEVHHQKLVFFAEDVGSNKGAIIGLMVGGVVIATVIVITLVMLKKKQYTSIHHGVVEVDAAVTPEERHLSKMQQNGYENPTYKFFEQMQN

Stimulation [1] [%] | inhibition [2] [%] | Compound
20 | 31 | CC12CCC(C1)C(C)(C)C2NS(=O)(=O)c1ccc(F)cc1 (stereo not drawn)
 | 0 | CC12CC[C@@H](C1)C(C)(C)[C@H]2NS(=O)(=O)c1ccc(F)cc1
23 | 58 | CC12CC[C@@H](C1)C(C)(C)[C@@H]2NS(=O)(=O)c1ccc(F)cc1 (single isomer, unassigned; (+))
 | 19 | CC1(C)[C@H]2CC[C@](C)(C2)[C@H]1NS(=O)(=O)c1ccc(F)cc1
32 | 47 | CC12CC[C@@H](C1)C(C)(C)[C@@H]2NS(=O)(=O)c1cccs1
 | 0 | CC1(C)[C@@H]2CC[C@@](C)(C2)[C@H]1NS(=O)(=O)c1ccc(F)cc1
0 | 26 | CC12CC[C@@H](C1)C(C)(C)[C@@H]2NS(=O)(=O)c1ccc(Cl)cc1
0 | 24 | CC12CC[C@@H](C1)C(C)(C)[C@@H]2NS(=O)(=O)c1ccc(Br)cc1
